This is an account of results in US7696174B2, “Short bio-active peptides for cellular and immunological modulation” (Helix Biomedix, Inc., priority 2007, dated 2010).

“Also recorded” adds a separate entry of the source. Like-named read-outs stand apart in the source and are kept apart here.

Type in all cases: cell-based
Assay [1] deals with PAM 212 murine epidermal keratinocyte. Put plainly: Cell proliferation assay, PAM 212 murine epidermal keratinocytes. The following applies: for cell proliferation as a percent of control cell proliferation: control = cells treated with PBS only; for cell proliferation activity (in words): epidermal keratinocytes. As for the experimental part:
To examine this question, an overlapping set of peptide fragments of HB-107 was generated using standard solid phase peptide chemistry. These peptides were then assayed for cell proliferation activity at concentrations of 0.22, 2.15, 21.5 and 46.4 μg/mL.
The cell proliferation assays proceeded from the following experimental protocol:
Cell Proliferation Assay Using a Mouse Keratinocyte Cell Line.
OBJECTIVE: To determine the anti-proliferative or cytotoxic potential of a test article when applied to epidermal keratinocytes in culture.
TEST SYSTEM: Either the murine keratinocyte cell line PAM212 or primary Normal Human Epidermal Keratinocytes (NHEK, from Clonetics) are preferred models, although other cells may be used.
Keratinocytes are examined microscopically daily. As the culture becomes 50-75% confluent, the media in the plate is aspirated and 0.25% trypsin/EDTA is added (0.05% trypsin for human cells). When the cells become rounded, the trypsin is neutralized by addition of an equal volume of DMEM or KBM supplemented with approximately 10% bovine serum or by using trypsin neutralizing solution (TNS, from Clonetics). Cells are then centrifuged and the pellet is resuspended in 1 ml of DMEM-1 or KBM. A hemacytometer is used to count the cell suspension and the total number of cells/mL is adjusted to 1.5-2.5×10^4 cells/mL with DMEM-1 or KBM. Cells are then plated in 96-well plates at a concentration of 3.0-5.0×10^3 cells/well by adding 200 μL of the cell suspension to each well. Typically, the central 60 wells are used and the outer wells are filled with DMEM or PBS to minimize evaporation effects.
A stock solution of the test article is prepared using DMEM-1 or KBM, and all other dilutions are henceforth prepared from this solution. Typically, each dilution is filtered through an 0.2-μm filter before application to the cell culture. A 1.0% (w/v or v/v) solution or suspension is prepared, and 10-fold or 3-fold serial dilutions are made in culture medium.
The cells are examined 18-24 hours after plating to ensure cell attachment and division, and then 100 μL of the media is aspirated, leaving behind 100 μL in each well. Then 100 μL of a 2× concentration of each test article dilution is added to the replicate wells. For the negative control, 100 μL of the vehicle media (DMEM-1 or KBM) is added to the control wells. The microplate is then incubated at 37 degrees C. and 5.0% CO2 for 48-72 hours after dosing, and cells are allowed to proliferate undisturbed. Following this 48-72 hour exposure, all media is aspirated and proliferation is assessed by one of the below methods.
Option A: neutral red uptake. After exposure and aspiration of media, 200 μL of neutral red media is immediately added to each well. The microplate is returned to the incubator for an additional three hours. Following this dye uptake period, the microplate is removed from the incubator and gently inverted, and the neutral red media is decanted into a collection pan. The cells are then fixed with fixing solution for approximately one minute. The fixing solution is decanted off, and the microplate is washed gently three times with washing solution. The washing solution is decanted, and 200 μL of lysing solution is added. After at least 15 minutes, the contents of each well are re-pipetted to ensure even color distribution in each well, and an aliquot is read on the spectrophotometer as detailed below.
Option B: MTT conversion assay. After exposure and aspiration of media, 200 μL of MTT assay media is immediately added to each well. […] The microplate is returned to the incubator for an additional three hours. Following this dye uptake period, the microplate is removed from the incubator and gently inverted, and the MTT media is decanted into a collection pan. The cells are then washed gently three times with washing solution. The washing solution is decanted, and 200 μL of lysing solution is added. […]

Assay [2] relates to human epidermal keratinocyte. Put plainly: Keratinocyte cell migration assay (tissue culture scratch test). Particulars: for cell migration activity (in words): scratch test. From the text: Cell proliferation alone is not sufficient to aid in wound healing. Upon sustaining an injury, cells bordering the wound proliferate; the migration of such newly formed cells to close the injury (or chronic lesion of older, dysfunctional tissue) is of equal importance. To address this issue, HB-107 and peptide fragments thereof were examined using a keratinocyte cell migration assay based on a simple tissue culture scratch test. […] The protocol for this assay is standard and has been described by Shanley et al. (2004, Invest. Ophthalmol. Vis. Sci. 45:1088-1094), the article of which is herein incorporated by reference in its entirety.

Assay [3] deals with IL6 expression in epithelial cells. In words: Repression of IL6 expression in resting epithelial cells. Particulars: for % Change in IL6 expression / Change in IL6 versus PBS control: 20 μg/mL peptide. From the text: The protocol for this assay is standard and described by Murakami et al. (2004, J. Immunol. 172:[…]), the article of which is incorporated herein by reference in its entirety.

The mark [4] stands for this setting: 24 hr after addition of 20 μg/mL peptide.
[5] abbreviates: 48 hr after addition of 20 μg/mL peptide.

For the substance “VFLKIEK (listed as Hyalophora cecropia) [HB-1074, fragment of HB-107]”, the “cell proliferation as a percent of control cell proliferation” value (“cell proliferation as a percent” below) in assay [1] (0.22 μg/mL peptide) worked out at 97%; in assay [1] (2.15 μg/mL peptide), 93%; in assay [1] (21.5 μg/mL peptide), 120%; in assay [1] (46.4 μg/mL peptide), 149%. The “cell proliferation activity (in words)” value in assay [1] was “can induce cell proliferation”.

Turning to “KIEKMG (listed as Hyalophora cecropia) [HB-1072, fragment of HB-107]”, the “cell proliferation as a percent” value in assay [1] (0.22 μg/mL peptide) stood at 98%; in assay [1] (2.15 μg/mL peptide), 107%; in assay [1] (21.5 μg/mL peptide), 185%; in assay [1] (46.4 μg/mL peptide), 237%. Besides, the figures for the “cell proliferation activity (in words)” value in assay [1], in assay [1] (listed as 6) and in assay [1] (listed as SEQ ID NO:6) were “significant increases in cell proliferation compared to induction by HB-107; also recorded: significant increase in the proliferation of epidermal keratinocytes at low concentrations”, “strongest proliferative activity” and “can induce cell proliferation”, respectively. For the same substance, the “percent closure of the scratch compared to initial width” value (“percent closure of the scratch” for short) in assay [2] (6 hr exposure to peptide) is 55%; in assay [2] (10 hr exposure to peptide), 77%. Also, the “cell migration activity (in words)” value in assay [2] was “just as capable as HB-107 in inducing cell migration; also recorded: capable of increasing the migration of cells in a manner similar to that of the parent HB-107 peptide”; in assay [2] (listed as SEQ ID NO:6), “can induce cell proliferation and migration”.

“KMGRNIRN (listed as Hyalophora cecropia) [HB-1060, fragment of HB-107]”: the “cell proliferation as a percent” value in assay [1] (0.22 μg/mL peptide) is on record as 57%; in assay [1] (2.15 μg/mL peptide), 52%; in assay [1] (21.5 μg/mL peptide), 90%; in assay [1] (46.4 μg/mL peptide), 83%.

Take “VFLKIEKMG (listed as Hyalophora cecropia) [HB-1071, fragment of HB-107]”: the “cell proliferation as a percent” value in assay [1] (0.22 μg/mL peptide) was 106%; in assay [1] (2.15 μg/mL peptide) it was 127%; in assay [1] (21.5 μg/mL peptide), 188%; in assay [1] (46.4 μg/mL peptide), 155%. Further, the “cell proliferation activity (in words)” value is recorded as “strongest proliferative activity” in assay [1] (listed as 5) and “can induce cell proliferation” in assay [1] (listed as SEQ ID NO:5).

For the substance “MGRNIRN (listed as Hyalophora cecropia) [HB-1061, fragment of HB-107]”, the “cell proliferation as a percent” value is 122% in assay [1] (0.22 μg/mL peptide), 156% in assay [1] (2.15 μg/mL peptide), 163% in assay [1] (21.5 μg/mL peptide) and 241% in assay [1] (46.4 μg/mL peptide). For the same substance, the “cell proliferation activity (in words)” value was “significant increases in cell proliferation compared to induction by HB-107; also recorded: significant increase in the proliferation of epidermal keratinocytes at low concentrations” in assay [1], “strongest proliferative activity” in assay [1] (listed as 3) and “can induce cell proliferation” in assay [1] (listed as SEQ ID NO:3). Besides, the “percent closure of the scratch” value amounted to 44% in assay [2] (6 hr exposure to peptide) and 67% in assay [2] (10 hr exposure to peptide). In addition, the “cell migration activity (in words)” value in assay [2] is “just as capable as HB-107 in inducing cell migration; also recorded: capable of increasing the migration of cells in a manner similar to that of the parent HB-107 peptide”; in assay [2] (listed as SEQ ID NO:3) it was “can induce cell proliferation and migration”.

For “KEKVFLKIE (listed as Hyalophora cecropia) [HB-1076, fragment of HB-107]”, the “IL6 reduction / anti-inflammatory activity in resting cells (in words)” value in assay [3] is given as “decrease the level of IL6 expression to the same degree as the HB-107 parent peptide”. In assay [3] (setting [4]), the “amount of IL6, Average” value was 266.7 pg/mL; the “amount of IL6, Well 1” value is given as 278.32 pg/mL; the “amount of IL6, Well 2” value is given as 255.08 pg/mL. In addition, in assay [3] (24 hr), the “% Change in IL6 expression” value was −17.60% and the “Change in IL6 versus PBS control” value was −56.8. In assay [3] (setting [5]), the “amount of IL6, Average” value stood at 727.59 pg/mL; the “amount of IL6, Well 1” value is recorded as 726.73 pg/mL; the “amount of IL6, Well 2” value came to 728.45 pg/mL. Also, in assay [3] (48 hr), the “% Change in IL6 expression” value is −25.40% and the “Change in IL6 versus PBS control” value is on record as −247.445. Also, the “IL6 reduction / anti-inflammatory activity in resting cells (in words)” value in assay [3] (listed as SEQ ID NO:8) was “having anti-inflammatory activity”.

For “GRNIRN (listed as Hyalophora cecropia) [HB-1062, fragment of HB-107]”, the “percent closure of the scratch” value in assay [2] (6 hr exposure to peptide) was 0%; in assay [2] (10 hr exposure to peptide), 24%. Also, in assay [2], the “cell migration activity (in words)” value is reported as “no migratory activity”.

In the case of “KIEKMGRNIRN (listed as Hyalophora cecropia) [HB-1057, fragment of HB-107]”, the “cell proliferation as a percent” value in assay [1] (0.22 μg/mL peptide) was found to be 121%; in assay [1] (2.15 μg/mL peptide), 118%; in assay [1] (21.5 μg/mL peptide), 171%; in assay [1] (46.4 μg/mL peptide), 167%. Besides, the “cell proliferation activity (in words)” value in assay [1] (listed as 9) was “strongest proliferative activity”; in assay [1] (listed as SEQ ID NO:9) it was “can induce cell proliferation”.

With “MPKEKVFLKIEKMG (listed as Hyalophora cecropia) [HB-912, fragment of HB-107]”, the “cell proliferation as a percent” value in assay [1] (0.22 μg/mL peptide) was found to be 100%; in assay [1] (2.15 μg/mL peptide) it was 84%; in assay [1] (21.5 μg/mL peptide), 125%; in assay [1] (46.4 μg/mL peptide), 137%. In addition, in assay [1], the “cell proliferation activity (in words)” value is recorded as “can induce cell proliferation”.

As for “EKMGRNIRN (listed as Hyalophora cecropia) [HB-1059, fragment of HB-107]”, the “cell proliferation as a percent” value in assay [1] (0.22 μg/mL peptide) is given as 95%; in assay [1] (2.15 μg/mL peptide), 128%; in assay [1] (21.5 μg/mL peptide), 162%; in assay [1] (46.4 μg/mL peptide), 186%. The “cell proliferation activity (in words)” value in assay [1] (listed as SEQ ID NO:2) is given as “strongest proliferative activity; also recorded: can induce cell proliferation”.

In the case of “LKIEKMGRNIRN (listed as Hyalophora cecropia) [HB-1056, fragment of HB-107]”, the “cell proliferation as a percent” value is 48% in assay [1] (0.22 μg/mL peptide), 39% in assay [1] (2.15 μg/mL peptide), 64% in assay [1] (21.5 μg/mL peptide) and 97% in assay [1] (46.4 μg/mL peptide).
